This is an account of results in EP0081425B1, “Pharmaceutical compositions having normolipemic properties and containing compounds of the n-substituted benzenesulfonamide type” (priority 1981, dated 1983).

SMILES strings stand for the structures. Where two headings read alike, the source gives them in different places.

The subject of the assay is hyperlipidémie provoquée par l'administration de TRITON®. The assay can be described thus: Triton test: hyperlipidemia induced by i.v. TRITON W.R. in fasted rats. It is filed as in vivo, rats WISTAR mâles. The conditions noted are these: for Cholestérol total Score (par rapport au clofibrate compté pour 1) / Triglycérides Score (par rapport au clofibrate compté pour 1) / Lipides totaux Score (par rapport au clofibrate compté pour 1) / Cholestérol estérifié Score (par rapport au clofibrate compté pour 1): ratio to clofibrate of the same series; for inhibition in vivo at 250 mg/kg: Rattus norvegicus, po, blood assayed 6 h and/or 24 h later. The text has this:
Dans une première série d'expériences, des produits ont été testés sur une hyperlipidémie provoquée par l'administration de TRITON® selon le protocole suivant.
Les essais ont été réalisés sur des groupes de cinq rats WISTAR mâles dont le poids varie de 150 à 175 g.
Pour effectuer ces essais, on provoque une hyperlipidémie chez les animaux, au moyen du produit commercialisé par la Société ROHM and HAAS sous le nom de TRITON® W. R.
On observe, sur cette hyperlipidémie, les effets obtenus par administration des substances actives selon l'invention.
Les essais sont réalisés comme suit : • les rats sont mis à jeûner pendant 18 heures, puis on administre le TRITON® W.R. par voie intraveineuse en solution aqueuse à 10 % à raison de 200 mg/kg ;
6 heures et/ou 24 heures plus tard, on effectue les dosages sur le sang de façon traditionnelle.
Dans la première colonne, on a indiqué le numéro du composé testé.
Dans la deuxième colonne, on a indiqué le nombre d'animaux qui ont été soumis au test.
Dans les quatre dernières colonnes, on a indiqué les résultats relatifs respectivement : • aux lipides totaux, • aux triglycérides, • au cholestérol total, • au cholestérol estérifié.
Dans chacune de ces colonnes, on indique : • a) le pourcentage de diminution par rapport au témoin TRITON; • b) le score par rapport au clofibrate de référence, c'est-à-dire le rapport de l'intensité de l'activité du produit testé vis-à-vis de celle,de l'activité au clofibrate comptée pour 1.

[1] abbreviates: 250 mg/kg oral, given with TRITON W.R. 200 mg/kg i.v., read-out: Cholestérol estérifié % (pourcentage de diminution par rapport au témoin TRITON).
[2] abbreviates: 250 mg/kg oral, given with TRITON W.R. 200 mg/kg i.v., read-out: Cholestérol total % (pourcentage de diminution par rapport au témoin TRITON).
[3] abbreviates: 250 mg/kg oral, given with TRITON W.R. 200 mg/kg i.v., read-out: Triglycérides % (pourcentage de diminution par rapport au témoin TRITON).
The mark [4] stands for this setting: read-out: Lipides totaux % (pourcentage de diminution par rapport au témoin TRITON), 250 mg/kg oral, given with TRITON W.R. 200 mg/kg i.v.

Take `COc1ccc(Cl)cc1S(=O)(=O)NCCO` [Composé n° 276]: the “Cholestérol total Score (par rapport au clofibrate compté pour 1)” value (“Cholestérol total Score” below) (250 mg/kg oral) is listed as 0,25. Also, where the note is “250 mg/kg oral”, the “Triglycérides Score (par rapport au clofibrate compté pour 1)” value (“Triglycérides Score” for short) is 0,48. In addition, the inhibition in vivo at 250 mg/kg stood at 0% under setting [1], 4.4% under setting [2] and 24.8% under setting [3].
For the molecule `CCC(CO)NS(=O)(=O)c1cc(Cl)ccc1OC` (stereo not shown) [Composé n° 311], for the setting “250 mg/kg oral”, the “Lipides totaux Score (par rapport au clofibrate compté pour 1)” value (shortened to “Lipides totaux Score”) is 0,69. Moreover, the inhibition in vivo at 250 mg/kg was 0% under setting [1], 0% under setting [2], 0% under setting [3] and 17.6% under setting [4].
As to `CCC(CO)NS(=O)(=O)c1cc(N)ccc1OC` (stereo not shown) [Composé n° 315], where the note is “250 mg/kg oral”, the “Cholestérol total Score” value is given as 1,83. For the same molecule, the “Lipides totaux Score” value (250 mg/kg oral) was 3,61. Besides, where the note is “250 mg/kg oral”, the “Triglycérides Score” value was 0,53. Moreover, the inhibition in vivo at 250 mg/kg by setting is: under setting [1], 0.8%; under setting [2], 17.4%; under setting [3], 38.1%; under setting [4], 49.8%.
For the molecule `COc1ccc(Cl)cc1S(=O)(=O)NCC(C)O` (stereo not shown) [Composé n° 318], under “250 mg/kg oral”, the “Cholestérol estérifié Score (par rapport au clofibrate compté pour 1)” value (“Cholestérol estérifié Score” below) was 0,65. Also, the “Cholestérol total Score” value (250 mg/kg oral) is reported as 1,55. Moreover, the “Lipides totaux Score” value (250 mg/kg oral) is listed as 0,77. Besides, the inhibition in vivo at 250 mg/kg under setting [1] worked out at 32%, the inhibition in vivo at 250 mg/kg under setting [2] came out at 14.7%, the inhibition in vivo at 250 mg/kg under setting [3] came to 0% and the inhibition in vivo at 250 mg/kg under setting [4] came out at 10.7%.
In the case of `COc1cc(N)c(Cl)cc1S(=O)(=O)NCC(C)O` (stereo not shown) [Composé n° 323], the “Cholestérol estérifié Score” value (250 mg/kg oral) is listed as 1,44. Besides, the “Cholestérol total Score” value (250 mg/kg oral) is on record as 4,26. For the same molecule, the “Lipides totaux Score” value (250 mg/kg oral) is listed as 1,23. For the same molecule, the inhibition in vivo at 250 mg/kg stood at 62.9% under setting [1], 39.2% under setting [2], 53% under setting [3] and 55.2% under setting [4].
Turning to `CCC(CO)NS(=O)(=O)c1cc(Br)ccc1OC` (stereo not shown) [Composé n° 645], under “250 mg/kg oral”, the “Cholestérol estérifié Score” value is 0,50. Besides, under “250 mg/kg oral”, the “Cholestérol total Score” value is reported as 1,54. Moreover, under “250 mg/kg oral”, the “Lipides totaux Score” value is 3,62. For the same molecule, the “Triglycérides Score” value (250 mg/kg oral) is 1,21. Moreover, the inhibition in vivo at 250 mg/kg stood at 19.4% under setting [1], 32.6% under setting [2], 36.8% under setting [3] and 42.3% under setting [4].
Consider `COc1cc([N+](=O)[O-])ccc1S(=O)(=O)NCCO` [compound 277], for which the “Cholestérol estérifié Score” value (250 mg/kg oral) is recorded as 0,08. Besides, the “Cholestérol total Score” value (250 mg/kg oral) is given as 0,18. In addition, where the note is “250 mg/kg oral”, the “Triglycérides Score” value is reported as 0,38. The inhibition in vivo at 250 mg/kg came out at 2.9% under setting [1], 3.2% under setting [2], 19.7% under setting [3] and 0% under setting [4].
As to `COc1cc(N)ccc1S(=O)(=O)NCCO` [compound 278], the “Cholestérol estérifié Score” value (250 mg/kg oral) was 0,65. In addition, the inhibition in vivo at 250 mg/kg under setting [1] was found to be 22%, the inhibition in vivo at 250 mg/kg under setting [2] was 0% and the inhibition in vivo at 250 mg/kg under setting [3] is 4.5%.
With `COc1ccc([N+](=O)[O-])cc1S(=O)(=O)NCCO` [compound 279], for the setting “250 mg/kg oral”, the “Triglycérides Score” value is 0,20. Further, the inhibition in vivo at 250 mg/kg is, setting by setting: under setting [1], 0%; under setting [2], 0%; under setting [3], 10.2%.
In the case of `COc1ccc(N)cc1S(=O)(=O)NCCO` [compound 280], the “Cholestérol estérifié Score” value (250 mg/kg oral) is recorded as 0,08. For the same molecule, where the note is “250 mg/kg oral”, the “Cholestérol total Score” value is recorded as 0,11. Further, the inhibition in vivo at 250 mg/kg reads like this: under setting [1], 2.9%; under setting [2], 1.9%; under setting [3], 0%.
As for `COc1cc([N+](=O)[O-])c(Cl)cc1S(=O)(=O)NCCO` [compound 281, chloro-5 N-(hydroxy-2 éthyl) méthoxy-2 nitro-4 benzènesulfonamide], the “Cholestérol estérifié Score” value (250 mg/kg oral) was 0,13. In addition, the “Cholestérol total Score” value (250 mg/kg oral) is given as 0,75. Further, the “Lipides totaux Score” value (250 mg/kg oral) was 0,25. The inhibition in vivo at 250 mg/kg was 4.9% under setting [1], 13.3% under setting [2], 0% under setting [3] and 11.3% under setting [4].
`COc1cc(N)c(Cl)cc1S(=O)(=O)NCCO` [compound 282]: under “250 mg/kg oral”, the “Cholestérol estérifié Score” value is 0,46, the “Cholestérol total Score” value is reported as 0,75, the “Lipides totaux Score” value is reported as 0,26 and the “Triglycérides Score” value is reported as 0,42. Moreover, under setting [1], the inhibition in vivo at 250 mg/kg was found to be 15.5%. Also, the inhibition in vivo at 250 mg/kg under setting [2] came to 13.3%. Also, under setting [3], the inhibition in vivo at 250 mg/kg turned out to be 21.6%. In addition, the inhibition in vivo at 250 mg/kg under setting [4] amounted to 12%.
Turning to `CCC(CO)NS(=O)(=O)c1ccc([N+](=O)[O-])cc1OC` (stereo not shown) [compound 312], under “250 mg/kg oral”, the “Lipides totaux Score” value was 1,79. Moreover, the inhibition in vivo at 250 mg/kg is, setting by setting: under setting [1], 54.1%; under setting [2], 55.1%; under setting [3], 0%; under setting [4], 45.4%.
The matching figures for `CCC(CO)NS(=O)(=O)c1ccc(N)cc1OC` (stereo not shown) [compound 313]: 0,77, 39.4%, 39.3%, 0% and 19.4%.
For `CCC(CO)NS(=O)(=O)c1cc([N+](=O)[O-])ccc1OC` (stereo not shown) [compound 314], the “Lipides totaux Score” value (250 mg/kg oral) is 1,02. Moreover, for the setting “250 mg/kg oral”, the “Triglycérides Score” value is on record as 0,04. The inhibition in vivo at 250 mg/kg under setting [1] was found to be 44%, the inhibition in vivo at 250 mg/kg under setting [2] was found to be 42.1%, the inhibition in vivo at 250 mg/kg under setting [3] was determined as 1.2% and the inhibition in vivo at 250 mg/kg under setting [4] is 25.9%.
Regarding `CCC(CO)NS(=O)(=O)c1cc(Cl)c(N)cc1OC` (stereo not shown) [compound 317], the “Cholestérol estérifié Score” value (250 mg/kg oral) is on record as 0,52. Also, the “Cholestérol total Score” value (250 mg/kg oral) is reported as 0,17. Besides, under “250 mg/kg oral”, the “Lipides totaux Score” value is 3,11. Besides, the inhibition in vivo at 250 mg/kg runs as follows: under setting [1], 25.4%; under setting [2], 1.6%; under setting [3], 0%; under setting [4], 42.9%.
Consider `COc1cc([N+](=O)[O-])ccc1S(=O)(=O)NCC(C)O` (stereo not shown) [compound 319], for which, under “250 mg/kg oral”, the “Cholestérol estérifié Score” value was 0,33, the “Cholestérol total Score” value was 0,17, the “Lipides totaux Score” value is 1,55 and the “Triglycérides Score” value was 0,78. In addition, the inhibition in vivo at 250 mg/kg under setting [1] worked out at 16.4%. The inhibition in vivo at 250 mg/kg under setting [2] came out at 1.6%. Besides, the inhibition in vivo at 250 mg/kg under setting [3] was 56.5%. Further, the inhibition in vivo at 250 mg/kg under setting [4] was determined as 21.4%.
In the case of `COc1cc(N)ccc1S(=O)(=O)NCC(C)O` (stereo not shown) [compound 320], under “250 mg/kg oral”, the “Cholestérol estérifié Score” value is 0,34, the “Cholestérol total Score” value is 1,61, the “Lipides totaux Score” value was 1,48 and the “Triglycérides Score” value is recorded as 0,91. The inhibition in vivo at 250 mg/kg under setting [1] was found to be 16.7%. The inhibition in vivo at 250 mg/kg under setting [2] turned out to be 15.3%. For the same molecule, the inhibition in vivo at 250 mg/kg under setting [3] was 66.1%. The inhibition in vivo at 250 mg/kg under setting [4] was 20.5%.
For `COc1ccc([N+](=O)[O-])cc1S(=O)(=O)NCC(C)O` (stereo not shown) [compound 321], where the note is “250 mg/kg oral”, the “Cholestérol estérifié Score” value is 0,95, the “Cholestérol total Score” value was 1,44, the “Lipides totaux Score” value is 2,84 and the “Triglycérides Score” value is 1,05. Besides, the inhibition in vivo at 250 mg/kg under setting [1] amounted to 46.7%. Besides, under setting [2], the inhibition in vivo at 250 mg/kg stood at 13.7%. Besides, the inhibition in vivo at 250 mg/kg under setting [3] worked out at 76%. In addition, the inhibition in vivo at 250 mg/kg under setting [4] was determined as 39.2%.
